Counter-ions that a name gives are not always drawn.
What was measured:
Format in all cases: cell-based
[1] = target: EGFR(D770_N771insSVD) expressing Ba/F3 stable cell line (Homo sapiens, UniProt P00533, DUP768-770, cells depend on it); experiment: Cellular proliferation (Alamar Blue) assay, EGFR(D770_N771insSVD) Ba/F3; details: 72 hr, read-out: D770 IC50
Summary of the method: (§1)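 Engineered Ba/F3 lines in RPMI with 10% FBS and A431 cells in DMEM with 10% FBS are plated overnight, exposed to compound dilutions (10-0.0005 μM final) for 72 hours, and then scored by a 3-hour Alamar Blue incubation.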

[2] = target: EGFR (A767_dupASV) expressing Ba/F3 stable cell line (Homo sapiens, UniProt P00533, DUP767-769, cells depend on it); experiment: Cellular proliferation (Alamar Blue) assay, EGFR (A767_dupASV) Ba/F3; details: 72 hr, read-out: A767 IC50
Summary of the method: as §1

A431 cells = experiment: Cellular proliferation (Alamar Blue) assay, A431 cells; details: Homo sapiens, A-431, 72 h, A431 cells; 72 hr; Alamar Blue; read-out: A431 IC50
Summary of the method: as §1

[3] = target: EGFR (H773insNPH) expressing Ba/F3 stable cell line (Homo sapiens, UniProt P00533, DUP771-773, cells depend on it); experiment: Cellular proliferation (Alamar Blue) assay, EGFR (H773insNPH) Ba/F3; details: 72 hr, read-out: NPH IC50
Summary of the method: as §1

[4] = target: HER2 (A775_G776insYVMA) expressing Ba/F3 stable cell line (Homo sapiens, UniProt P04626, DUP772-775, cells depend on it); experiment: Cellular proliferation (Alamar Blue) assay, HER2 (A775_G776insYVMA) Ba/F3; details: HER2 (A775_G776insYVMA) Ba/F3 cells; 72 hr; Alamar Blue; read-out: YVMA IC50
Summary of the method: as §1

Sequence of EGFR (A767_dupASV) expressing Ba/F3 stable cell line (P00533 with tags, fused parts or gaps DUP767-769): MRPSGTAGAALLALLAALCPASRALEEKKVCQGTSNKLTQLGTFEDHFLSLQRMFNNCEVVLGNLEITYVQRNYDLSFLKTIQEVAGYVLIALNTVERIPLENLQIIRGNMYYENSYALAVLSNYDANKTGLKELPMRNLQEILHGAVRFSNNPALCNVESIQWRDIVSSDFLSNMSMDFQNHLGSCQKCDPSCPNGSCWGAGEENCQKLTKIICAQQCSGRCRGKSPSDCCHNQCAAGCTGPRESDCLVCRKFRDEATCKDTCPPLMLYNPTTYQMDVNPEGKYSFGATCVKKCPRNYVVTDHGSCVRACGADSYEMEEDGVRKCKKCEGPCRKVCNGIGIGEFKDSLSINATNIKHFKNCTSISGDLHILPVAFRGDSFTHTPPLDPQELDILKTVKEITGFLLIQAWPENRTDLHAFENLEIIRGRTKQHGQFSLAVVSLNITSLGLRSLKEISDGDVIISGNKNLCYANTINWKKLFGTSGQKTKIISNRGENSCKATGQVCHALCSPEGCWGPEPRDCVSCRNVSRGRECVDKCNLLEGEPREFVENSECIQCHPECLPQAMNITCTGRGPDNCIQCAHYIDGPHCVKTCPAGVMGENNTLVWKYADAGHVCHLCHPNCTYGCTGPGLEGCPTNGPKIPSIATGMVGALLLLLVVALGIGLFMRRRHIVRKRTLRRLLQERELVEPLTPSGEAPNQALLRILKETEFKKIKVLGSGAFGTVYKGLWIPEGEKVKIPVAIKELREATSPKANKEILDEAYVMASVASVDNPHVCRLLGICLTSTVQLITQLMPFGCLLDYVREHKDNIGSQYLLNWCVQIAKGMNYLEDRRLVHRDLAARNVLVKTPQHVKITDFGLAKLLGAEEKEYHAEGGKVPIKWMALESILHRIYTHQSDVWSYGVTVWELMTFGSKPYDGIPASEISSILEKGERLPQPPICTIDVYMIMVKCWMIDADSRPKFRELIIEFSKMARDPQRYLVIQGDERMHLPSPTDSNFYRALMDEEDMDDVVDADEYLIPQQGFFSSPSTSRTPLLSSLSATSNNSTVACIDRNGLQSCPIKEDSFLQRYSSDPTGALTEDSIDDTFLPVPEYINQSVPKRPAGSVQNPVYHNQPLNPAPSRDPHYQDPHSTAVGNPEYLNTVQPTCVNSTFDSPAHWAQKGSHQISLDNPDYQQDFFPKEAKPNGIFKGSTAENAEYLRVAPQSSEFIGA
Sequence of EGFR (H773insNPH) expressing Ba/F3 stable cell line (P00533 with tags, fused parts or gaps DUP771-773): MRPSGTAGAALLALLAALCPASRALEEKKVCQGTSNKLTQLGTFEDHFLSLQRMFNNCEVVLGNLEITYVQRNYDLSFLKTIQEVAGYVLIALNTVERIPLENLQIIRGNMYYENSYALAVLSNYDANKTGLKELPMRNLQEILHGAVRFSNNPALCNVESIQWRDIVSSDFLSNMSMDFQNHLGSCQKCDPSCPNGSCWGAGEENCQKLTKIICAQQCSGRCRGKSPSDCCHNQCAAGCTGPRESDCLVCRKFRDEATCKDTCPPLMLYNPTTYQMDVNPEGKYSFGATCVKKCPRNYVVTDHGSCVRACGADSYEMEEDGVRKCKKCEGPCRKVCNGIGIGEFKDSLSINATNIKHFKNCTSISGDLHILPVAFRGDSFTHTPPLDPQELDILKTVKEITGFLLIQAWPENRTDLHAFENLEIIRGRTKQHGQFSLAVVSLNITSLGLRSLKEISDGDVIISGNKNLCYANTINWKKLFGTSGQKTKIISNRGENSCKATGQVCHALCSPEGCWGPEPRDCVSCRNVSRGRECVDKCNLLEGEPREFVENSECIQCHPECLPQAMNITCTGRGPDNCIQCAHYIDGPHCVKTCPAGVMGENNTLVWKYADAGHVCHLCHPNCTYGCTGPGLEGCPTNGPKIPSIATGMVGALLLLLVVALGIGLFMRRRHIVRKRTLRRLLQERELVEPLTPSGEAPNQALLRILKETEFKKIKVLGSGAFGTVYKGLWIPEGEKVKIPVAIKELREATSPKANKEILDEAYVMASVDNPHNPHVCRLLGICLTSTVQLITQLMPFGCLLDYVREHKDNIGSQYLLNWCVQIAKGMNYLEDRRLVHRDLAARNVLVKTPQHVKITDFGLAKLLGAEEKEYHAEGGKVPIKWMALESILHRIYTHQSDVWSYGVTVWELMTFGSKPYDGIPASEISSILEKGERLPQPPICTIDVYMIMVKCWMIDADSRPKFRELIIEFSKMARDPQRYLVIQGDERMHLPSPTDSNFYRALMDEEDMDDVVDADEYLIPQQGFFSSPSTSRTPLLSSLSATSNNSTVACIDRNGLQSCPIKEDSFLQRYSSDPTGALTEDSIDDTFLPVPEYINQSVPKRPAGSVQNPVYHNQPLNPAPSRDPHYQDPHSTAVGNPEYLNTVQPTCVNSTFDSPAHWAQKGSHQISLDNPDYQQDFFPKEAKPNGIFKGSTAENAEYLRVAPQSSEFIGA
Sequence of EGFR(D770_N771insSVD) expressing Ba/F3 stable cell line (P00533 with tags, fused parts or gaps DUP768-770): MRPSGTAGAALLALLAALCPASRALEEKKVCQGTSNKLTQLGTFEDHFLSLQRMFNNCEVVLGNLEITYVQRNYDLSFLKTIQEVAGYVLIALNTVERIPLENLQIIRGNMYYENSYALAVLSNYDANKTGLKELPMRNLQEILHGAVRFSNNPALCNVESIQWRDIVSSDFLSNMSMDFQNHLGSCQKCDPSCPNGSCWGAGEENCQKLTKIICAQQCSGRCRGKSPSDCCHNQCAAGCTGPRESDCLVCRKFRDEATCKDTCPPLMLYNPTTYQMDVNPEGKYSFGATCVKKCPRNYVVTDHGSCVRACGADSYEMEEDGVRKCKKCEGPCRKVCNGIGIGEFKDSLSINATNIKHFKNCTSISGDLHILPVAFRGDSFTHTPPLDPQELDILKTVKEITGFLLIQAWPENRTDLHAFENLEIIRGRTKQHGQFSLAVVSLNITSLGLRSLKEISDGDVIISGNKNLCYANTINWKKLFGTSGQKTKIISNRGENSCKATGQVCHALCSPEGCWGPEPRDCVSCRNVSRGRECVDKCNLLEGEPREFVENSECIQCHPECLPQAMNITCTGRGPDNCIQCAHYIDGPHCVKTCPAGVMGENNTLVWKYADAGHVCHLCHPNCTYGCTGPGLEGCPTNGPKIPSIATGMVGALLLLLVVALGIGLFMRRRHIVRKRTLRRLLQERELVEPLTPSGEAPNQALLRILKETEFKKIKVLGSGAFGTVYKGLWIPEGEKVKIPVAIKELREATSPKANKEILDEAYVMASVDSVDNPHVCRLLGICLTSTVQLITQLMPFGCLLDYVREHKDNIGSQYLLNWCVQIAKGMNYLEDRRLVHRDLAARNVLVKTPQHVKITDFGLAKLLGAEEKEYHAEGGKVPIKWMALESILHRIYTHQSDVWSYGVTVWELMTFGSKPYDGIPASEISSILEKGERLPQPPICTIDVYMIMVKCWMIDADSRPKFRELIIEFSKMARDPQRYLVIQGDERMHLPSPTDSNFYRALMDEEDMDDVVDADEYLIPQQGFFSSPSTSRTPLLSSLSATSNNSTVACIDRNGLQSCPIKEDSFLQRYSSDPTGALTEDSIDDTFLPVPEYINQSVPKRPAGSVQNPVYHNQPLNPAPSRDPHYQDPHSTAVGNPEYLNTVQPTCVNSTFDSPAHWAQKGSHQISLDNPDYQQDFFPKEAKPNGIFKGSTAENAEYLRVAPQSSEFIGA
Sequence of HER2 (A775_G776insYVMA) expressing Ba/F3 stable cell line (P04626 with tags, fused parts or gaps DUP772-775): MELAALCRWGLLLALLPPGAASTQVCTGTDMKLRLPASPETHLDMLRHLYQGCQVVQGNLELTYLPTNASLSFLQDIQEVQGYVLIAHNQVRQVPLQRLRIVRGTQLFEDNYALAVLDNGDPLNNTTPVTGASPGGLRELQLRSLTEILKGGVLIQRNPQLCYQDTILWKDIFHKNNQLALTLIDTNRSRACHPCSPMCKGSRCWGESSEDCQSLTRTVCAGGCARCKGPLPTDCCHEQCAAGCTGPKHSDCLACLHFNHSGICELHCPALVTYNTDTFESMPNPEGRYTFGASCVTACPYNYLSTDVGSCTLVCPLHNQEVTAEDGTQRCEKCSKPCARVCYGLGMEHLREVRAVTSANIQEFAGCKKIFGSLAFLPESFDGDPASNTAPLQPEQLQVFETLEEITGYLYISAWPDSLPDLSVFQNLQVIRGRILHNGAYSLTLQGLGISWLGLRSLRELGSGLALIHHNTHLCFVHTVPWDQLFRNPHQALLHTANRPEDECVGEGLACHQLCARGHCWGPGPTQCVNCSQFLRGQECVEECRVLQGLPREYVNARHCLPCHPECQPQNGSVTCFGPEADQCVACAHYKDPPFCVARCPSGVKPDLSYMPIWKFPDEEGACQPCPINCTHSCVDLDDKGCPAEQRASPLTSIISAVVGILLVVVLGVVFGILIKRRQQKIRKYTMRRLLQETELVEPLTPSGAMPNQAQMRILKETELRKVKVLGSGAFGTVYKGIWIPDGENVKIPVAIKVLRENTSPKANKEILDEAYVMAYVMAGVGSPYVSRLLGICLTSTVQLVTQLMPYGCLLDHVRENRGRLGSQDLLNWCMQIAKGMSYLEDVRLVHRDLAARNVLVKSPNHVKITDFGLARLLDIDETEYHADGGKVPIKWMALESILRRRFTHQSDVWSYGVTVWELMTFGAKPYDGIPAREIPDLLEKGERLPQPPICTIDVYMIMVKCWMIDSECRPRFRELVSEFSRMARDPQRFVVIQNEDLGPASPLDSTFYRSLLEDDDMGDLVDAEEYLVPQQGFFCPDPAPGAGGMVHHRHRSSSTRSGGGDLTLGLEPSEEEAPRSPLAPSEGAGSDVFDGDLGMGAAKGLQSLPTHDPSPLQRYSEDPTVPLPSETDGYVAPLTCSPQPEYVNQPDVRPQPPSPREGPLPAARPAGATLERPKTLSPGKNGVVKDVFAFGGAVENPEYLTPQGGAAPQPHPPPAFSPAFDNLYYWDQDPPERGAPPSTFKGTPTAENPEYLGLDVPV

Compound | GI50 [1] | GI50 [2] | IC50 (A431 cells) | GI50 [3] | GI50 [4]
C=CC(=O)Nc1ccc(F)c(Nc2nc(Nc3cnn(C)c3)ncc2-c2cnc(Cl)c(Cl)c2)c1 [Compound 17, N-(3-((5-(5,6-dichloropyridin-3-yl)-2-((1-methyl-1H-pyrazol-4-yl)amino)pyrimidin-4-yl)amino)-4-fluorophenyl)acrylamide] | 35 nM | 32 nM | 75 nM | 96 nM | 42 nM
C=CC(=O)Nc1ccc(F)c(Nc2nc(Nc3cnn(C)c3)ncc2-c2cc(C)cc(F)c2)c1 [Compound 64, N-(4-fluoro-3-((5-(3-fluoro-5-methylphenyl)-2-((1-methyl-1H-pyrazol-4-yl)amino)pyrimidin-4-yl)amino)phenyl)acrylamide] | 61 nM | 104 nM | 554 nM | 95 nM | 159 nM
C=CC(=O)Nc1ccc(F)c(Nc2nc(Nc3cnn(C)c3)ncc2-c2cc(Cl)cc(Cl)c2)c1 [Compound 32, N-(3-((5-(3,5-dichlorophenyl)-2-((1-methyl-1H-pyrazol-4-yl)amino)pyrimidin-4-yl)amino)-4-fluorophenyl)acrylamide] | 294 nM | 159 nM | > 10000 nM | 160 nM | 1160 nM
C=CC(=O)Nc1ccc(F)c(Nc2nc(Nc3cnn(C)c3)ncc2-c2cc(F)cc(C(F)(F)F)c2)c1 [Compound 27, N-(4-fluoro-3-((5-(3-fluoro-5-(trifluoromethyl)phenyl)-2-((1-methyl-1H-pyrazol-4-yl)amino)pyrimidin-4-yl)amino)phenyl)acrylamide] | 35 nM | 31 nM | 73 nM | 55 nM | 150 nM
C=CC(=O)Nc1ccc(F)c(Nc2nc(Nc3cnn(C)c3)ncc2-c2ccc(Cl)c(F)c2)c1 [Compound 33, N-(3-((5-(4-chloro-3-fluorophenyl)-2-((1-methyl-1H-pyrazol-4-yl)amino)pyrimidin-4-yl)amino)-4-fluorophenyl)acrylamide] | 20 nM | 21 nM | 35 nM | 52 nM | 73 nM
C=CC(=O)Nc1ccc(F)c(Nc2nc(Nc3cnn(C)c3)ncc2-c2ccc(F)c(Br)c2)c1 [Compound 18, N-(3-((5-(3-bromo-4-fluorophenyl)-2-((1-methyl-1H-pyrazol-4-yl)amino)pyrimidin-4-yl)amino)-4-fluorophenyl)acrylamide trifluoroacetate] | 113 nM | 166 nM | 251 nM | 56 nM | 220 nM
C=CC(=O)Nc1ccc(F)c(Nc2nc(Nc3cnn(C)c3)ncc2-c2cc(F)ccc2Cl)c1 [Compound 11, N-(3-((5-(2-chloro-5-fluorophenyl)-2-((1-methyl-1H-pyrazol-4-yl)amino)pyrimidin-4-yl)amino)-4-fluorophenyl)acrylamide] | 194 nM | 262 nM | 1950 nM | 124 nM | 1070 nM
C=CC(=O)Nc1ccc(F)c(Nc2nc(Nc3cnn(C)c3)ncc2-c2ccc(OC)c(Cl)c2)c1 [Compound 3, N-(3-((5-(3-chloro-4-methoxyphenyl)-2-((1-methyl-1H-pyrazol-4-yl)amino)pyrimidin-4-yl)amino)-4-fluorophenyl)acrylamide] | 90 nM | 91 nM | 2320 nM | 103 nM | 432 nM
C=CC(=O)Nc1ccc(F)c(Nc2nc(Nc3cnn(C)c3)ncc2-c2ccc(F)c(Cl)c2)c1 [Compound 6, N-(3-((5-(3-chloro-4-fluorophenyl)-2-((1-methyl-1H-pyrazol-4-yl)amino)pyrimidin-4-yl)amino)-4-fluorophenyl)acrylamide] | 51 nM | 80 nM | 810 nM | 83 nM | 187 nM
C=CC(=O)Nc1ccc(F)c(Nc2nc(Nc3cnn(C)c3)ncc2-c2ccc(F)c(C(F)(F)F)c2)c1 [Compound 25, N-(4-fluoro-3-((5-(4-fluoro-3-(trifluoromethyl)phenyl)-2-((1-methyl-1H-pyrazol-4-yl)amino)pyrimidin-4-yl)amino)phenyl)acrylamide] | 102 nM | 87 nM | 49 nM | 91 nM | 341 nM
C=CC(=O)Nc1cccc(Nc2nc(Nc3cnn(C)c3)ncc2-c2ccc(F)c(F)c2)c1 [Compound 67, N-(3-((5-(3,4-difluorophenyl)-2-((1-methyl-1H-pyrazol-4-yl)amino)pyrimidin-4-yl)amino)phenyl)acrylamide] | 36 nM | 41 nM | 213 nM | 100 nM | 60 nM
C=CC(=O)Nc1ccc(F)c(Nc2nc(Nc3cnn(C4COC4)c3)ncc2-c2ccc(Cl)c(Cl)c2)c1 [Compound 56, N-(3-((5-(3,4-dichlorophenyl)-2-((1-(oxetan-3-yl)-1H-pyrazol-4-yl)amino)pyrimidin-4-yl)amino)-4-fluorophenyl)acrylamide] | 104 nM | 95 nM | 587 nM | 84 nM | 118 nM
C=CC(=O)Nc1cccc(Nc2nc(Nc3cnn(C)c3)ncc2-c2ccc(F)c(Cl)c2)c1 [Compound 49, N-(3-((5-(3-chloro-4-fluorophenyl)-2-((1-methyl-1H-pyrazol-4-yl)amino)pyrimidin-4-yl)amino)phenyl)acrylamide] | 38 nM | 44 nM | 246 nM | 27 nM | 65 nM
C=CC(=O)Nc1ccc(F)c(Nc2nc(Nc3cnn(C)c3)ncc2-c2ccc(Cl)c(Br)c2)c1 [Compound 90, N-(3-((5-(3-bromo-4-chlorophenyl)-2-((1-methyl-1H-pyrazol-4-yl)amino)pyrimidin-4-yl)amino)-4-fluorophenyl)acrylamide] | 100 nM | 122 nM | 185 nM | 156 nM | 164 nM
C=CC(=O)Nc1ccc(F)c(Nc2nc(Nc3cnn(C)c3)ncc2-c2ccc(N(C)C)c(F)c2)c1 [Compound 28, N-(3-((5-(4-(dimethylamino)-3-fluorophenyl)-2-((1-methyl-1H-pyrazol-4-yl)amino)pyrimidin-4-yl)amino)-4-fluorophenyl)acrylamide] | 29 nM | 27 nM | 193 nM | 47 nM | 271 nM

— patent publication US20230416232A1, “PYRIMIDINE COMPOUNDS, COMPOSITIONS, AND MEDICINAL APPLICATIONS THEREOF” (Blueprint Medicines Corporation, priority 2020, published 2023)
